According to publication PMC12224939, “Trypstatin as a Novel TMPRSS2 Inhibitor with Broad‐Spectrum Efficacy against Corona and Influenza Viruses” (Advanced Science, 2025):
Where a name gives a salt, the structure may show the parent alone. Read-outs that look alike come from different tables or passages of the source. Bridge positions count the residues as written; N and C are the ends. Ends that are not written are not given here.

How the values were obtained:
SARS-CoV-2 B.1 D614G = settings: read-out: anti-viral IC50 (±SEM), SARS-CoV-2 B.1
[1] = test system: lentiviral pseudoparticles harboring the SARS-CoV-2 Hu-1 spike; experiment: microbe, parasite or virus in culture; settings: Severe acute respiratory syndrome coronavirus 2, Caco-2, 48 h, read-out: IC50, SARS-CoV-2 spike-driven pseudoparticle entry, Caco-2 cells, Hu-1 spike, luciferase 48 h after transduction
[2] = test system: lentiviral pseudoparticles harboring the SARS-CoV-2 Hu-1 spike
[3] = read-out: IC50, SARS-CoV-2 spike-driven pseudoparticle entry, Caco-2 cells, luciferase 48 h after transduction

Molecule	IC50 [2, 3] [nM]	other results
CN(C)C(=O)COC(=O)Cc1ccc(OC(=O)c2ccc(NC(=N)N)cc2)cc1 [Camostat mesylate]		IC50 (SARS-CoV-2 B.1 D614G): 4.1 ± 2 nM; IC50 [1]: 93.8 ± 6 nM
CC(=O)NCC(=O)N[C@@H](CCC(N)=O)C(=O)N[C@@H](Cc1ccccc1)C(=O)N[C@@H](CCCN=C(N)N)C(=O)c1nc2ccccc2s1 [MM3122, reference compound]	31.2 ± 3	
N=C(N)c1ccc2cc(OC(=O)c3ccc(N=C(N)N)cc3)ccc2c1 [Nafamostat mesylate]		IC50 [1]: 14.4 ± 1 nM
Antitrypsin		IC50 ([2]; read-out: IC50, SARS-CoV-2 spike-driven pseudoparticle entry, Caco-2 cells, luciferase 48 h after transduction, listed as α‐1‐antitrypsin): 27400 ± 4100 nM
Aprotinin	427 ± 30	
CNLPIVRGPCRAFIQLWAFDAVKGKCVLFPYGGCQGNGNKFYSEKECREYC (disulfide 1-51, 10-34, 26-47) [Bikunin KD 2]	170 ± 20	
Bikunin (protein, UniProt P02760 206-352, looked up, Inter-alpha-trypsin inhibitor light chain) Inter-alpha-trypsin inhibitor …: AVLPQEEEGSGGGQLVTEVTKKEDSCQLGYSAGPCMGMTSRYFYNGTSMACETFQYGGCMGNGNNFVTEKECLQTCRTVAACNLPIVRGPCRAFIQLWAFDAVKGKCVLFPYGGCQGNGNKFYSEKECREYCGVPGDGDEELLRFSN	6100 ± 1200	
